Assay results taken from US8703790B2, “Bis [O-(14-benzoylaconine-8-yl)] esters” (priority 2008, dated 2014).

Tests used:
[1] = Partition coefficient log D (pH 7.4), micro HPLC method, n-octanol/phosphate buffer; type: physicochemical; conditions: n-octanol/phosphate buffer pH 7.4
Experimental: The relative log D (pH 7.4) in this study was assessed by the micro HPLC method which is disclosed in A microscale HPLC method for the evaluation of octanol-water partition coefficients in a series of new 2-amino-2oxazolines Pehourcq, F.; Thomas, J.; Jarry, C., J. Liq. Chromatogr. Relat. Technol. (2000), 23, 443-453.
These determinations were performed with a chromatographic apparatus (Spectra Series, San Jose, USA). A reversed phase column was used: a Stability RP18 (4.6×150 mm; 5 μm particle size) with a mobile phase consisting of acetonitrile (+1‰ trifluoroacetic acid)−water (+1‰ trifluoroacetic acid) (40:60 v/v).
The compound was partitioned between n-octanol (HPLC grade) and phosphate buffer (pH=7.4). Octanol was presatured with buffer, and conversely. An amount of 1 mg of the compound was dissolved in an adequate volume of methanol in order to achieve 1 mg/mL stock solutions. Then, an appropriate aliquot of this methanolic solution was dissolved in buffer to obtain final concentration of 100 μg/mL. Under the above described chromatographic conditions, 20 μL of this aqueous phase was injected into the chromatograph, leading to the determination of a peak area before partitioning (W0).
In screw-capped tubes, 2000 μL of the aqueous phase (Vag) was then added to 10 μL of n-octanol (Voct) at pH=7.4. […] Log D was calculated from the formula: log D=log [(W0−W1)Vaq/W1Voct].

[2] = system: HCT-15; experiment: Cell cycle arrest, propidium iodide flow cytometry, HCT-15; type: cell-based, human
Experimental: 10^6 Cells of A549, HCT-15 and MCF-7 cell lines have been seeded in Petri dishes with RPMI-1640 medium. 24 h later, SDD has been dissolved in water at a concentration of 20 μM and was directly added to the culture medium. Contact was maintained for 72 h. Then, cells have been detached by trypsinization, collected and rinsed by PBS and counted on hemocytometer. Cells were centrifuged for 5 min at 1500 rpm, then resuspended in a defined volume of PBS to obtain 2.5×10^6 cell/mL. 100 μL of cell suspension was digested to nuclei by trypsin for 10 min. Then, a solution containing trypsin inhibitor and RNAse was added to cell suspension and left for 10 min. Finally, cells were stained by propidium iodide and were analysed by flow-cytometry apparatus. Distribution of cells among the different phases of the cycle was determined by the procedure disclosed in: A detergent-trypsin method for preparation of nuclei for flow cytometric DNA analysis. Vindelov, L.; Christensen, I.; Nissen, N.; Cytometry (1983), 3, 323-327.
• G0G1: cell in the phase of GOG1 • G2M: cells in the phase of G2M • S: cells in the phase of DNA synthesis • Sub G1: apoptotic cells • SUP G2M: diploidic cells

[3] = system: DNA topoisomerase II (Topo II); experiment: Topo II catalytic activity, decatenation of kDNA; type: biochemical; conditions: 1, 10, 100 and 1000 μM; dose independent
Experimental: Test for revelation of the possible inhibitory effect of SDD on Topo II catalytic activity has been undertaken by decatenation of a catenated DNA substrate originating from Trypanosoma kinetoplasts (kDNA, TopoGen) into relaxed DNA forms.
The following standard reaction mixture contained 40 mM Tris/HCl pH 7.4, 10 mM MgCl2, 0.5 mM dithiothreitol, 1 mM ATP and […] kDNA has been carried out.
The reaction was initiated by the addition of 0.35 M NaCl nuclear extract and stopped after 20 min incubation at 37° C. by adding a denaturating solution containing 30% glycerol, 1% SDS, 0.5 mg/ml bromphenol blue.
The samples were then electrophoresed on a 1% agarose gel in 40 mM Tris/acetic acid, pH 8.0 containing 2 mM EDTA and 0.1 μg/ml ethidium bromide, for 45 min at 80V.
A positive control for decatenation was a decatenated kDNA marker obtained from TopoGen, containing a mixture of two species of relaxed
DNA, open circular DNA and covalently closed circular DNA.
DNA was visualized under UV light and the various DNA forms were quantified by densitometric scanning using the device described above.
Etoposide was used as positive control, as it is described in the following publication: Differential stabilisation of topoisomerase-II-DNA cleavable complexes doxorubicine and etoposide in doxorubicin-resistant rat glioblastoma cells. […]

[4] = system: female Swiss mouse; experiment: Acute systemic toxicity, preliminary test, intravenous; type: in vivo; conditions: for death of the animal, time after the test item administration: 1 female Swiss mouse
Experimental: The study has been performed to assess the acute systemic toxicity of SDD in the mouse preliminary test.
The SDD was administered, by intravenous route: • in a first step to 1 female Swiss mouse at the single dose of 95 mg/kg b.w., • in a second step to 1 female Swiss mouse at the single dose of 60 mg/kg b.w., • in a third step to 1 female Swiss mouse at the single dose of 55 mg/kg b.w., and • in a fourth step to a group of 2 female Swiss mice at the single dose of 50 mg/kg b.w.

[5] = HCT-15, SDD 20 μM, 72 h, percentage of total cell population
[6] = 50 mg/kg b.w. iv, 1 hour after administration

## CCN1C[C@]2(COC)[C@H](O)C[C@H](OC)[C@]34C1[C@H]([C@H](OC)[C@H]23)[C@]1(OC(=O)CCCCCCC(=O)O[C@]23[C@H]5[C@@H](OC(=O)c6ccccc6)[C@](O)(C[C@H]5[C@@]56C7[C@@H]2[C@H](OC)[C@@H]5[C@](COC)(CN7CC)[C@H](O)C[C@@H]6OC)[C@@H](OC)[C@@H]3O)[C@H]2[C@@H](OC(=O)c3ccccc3)[C@](O)(C[C@H]24)[C@@H](OC)[C@@H]1O [SDD, bis[O-(14-benzoylaconine-8-yl)]-suberate]
[1]
  log D (pH 7.4): 2.86
[2]; HCT-15, 20 μM
  accumulation of cells in the G2M and S phases: significant accumulation
  numbers of apoptotic cells (Sub G1): significantly increased
[2]; HCT-15, SDD 20 μM
  increase of number of cells arrested at S phase as compared to control: more than 100%
  increase of number of cells in the G2M phase as compared to control: 75%
[2]; [5]
  ALL %: 100%
  G0G1 %: 30.67%
  G2M %: 15.72%
  S %: 26.35%
  SUP G2M % (diploidic cells): 2.59%
  SubG1 % (apoptotic cells): 23.65%
[2]; HCT-15, SDD, survival cells
  Percentage of survival cells, G0G1 %: 42.16%
  Percentage of survival cells, G2M %: 21.61%
  Percentage of survival cells, S %: 36.23%
[3]
  inhibition of Topo II activity compared to etoposide: relatively moderate inhibition
[4]; [6]
  decrease of the righting reflex (animals affected): 1/2
  decrease of the spontaneous activity (animals affected): 2/2
[4]; 50 mg/kg b.w. iv, first day to fourteenth day
  local finding at the tails: oedema at the level of the tails
[4]; 50 mg/kg b.w. single dose iv, 2 female Swiss mice
  mortality: No mortality
[4]; 50 mg/kg iv, end of the study
  macroscopical examination: did not reveal any treatment-related changes
[4]; 55 mg/kg b.w. single dose iv
  death of the animal, time after the test item administration: 24 h
[4]; 60 mg/kg b.w. single dose iv
  death of the animal, time after the test item administration: 3 h
[4]; 95 mg/kg b.w. single dose iv
  death of the animal, time after the test item administration: immediately
[4]; preliminary test, throughout the study
  body weight evolution: remained normal
